Laboratory results taken from patent US12152017B2, “Ketoamide compound and preparation method, pharmaceutical composition, and use thereof” (Shanghai Institute of Materia Medica, Chinese Academy of …, priority 2018, dated 2024).
Values joined by “and” are separate entries in the source; they are usually repeats but may differ in a detail not shown here. Identical values can stand only once. Like-named read-outs stand apart in the source and are kept apart here.

Columns and labels:
HCoV-229E pseudovirus = assay: microbe, parasite or virus in culture; format: cell-based; settings: Human coronavirus 229E, read-out: viral inhibitory effect, HCoV-229E pseudovirus
[1] = Pharmacokinetic study in CD-1 mice (gavage, intravenous, intraperitoneal); format: in vivo; settings: for bioavailability: read-out: F (bioavailability)
Protocol: Nine CD-1 mice, male, weighing 18-22 g, were randomly divided into 3 groups with 3 mice in each group. The test compounds were administered by gavage, intravenously and intraperitoneally according to the following schemes.
Before the test, they were fasted for 12 hours and were allowed to drink water freely, and were fed uniformly 2 h after administration.
There were 3 animals at each time point.
The solution for gavage administration was formulated with DMSO/0.5% HPMC (5/95, v/v) into the final concentration. Intravenous and intraperitoneal administration were formulated with DMSO/PEG300/EtOH/NaCl (5/40/5/50, v/v/v). Retention samples of the dosing solution (50 μL of the drug solution was taken and mixed well with 50 μL of DMSO before and after the administration) for testing.
The drug was administered according to the above dosage, the time of administration were recorded, and 20 μL of blood was collected from the mouse femoral plexus at the above set time point and placed in a heparinized test tube and centrifuged immediately at 11000 rpm for 5 min. 10 μL of plasma was immediately and accurately drawn into a centrifuge tube pre-filled with 100 μL of PK-IS solution (prepared with methanol:acetonitrile (1:1, v/v)), mixed well, and frozen to store at −20° C. for testing.

[2] = In vivo safety: body weight of mice during 7 days of intraperitoneal administration; set-up: species or system Balb/c mice; settings: 100 mg/kg i.p. once a day for 7 consecutive days
Protocol: Next, we further evaluated the safety of compound A13 in mice. The mice in the drug group (100 mg/kg) and the DMSO control group were administered intraperitoneally, once a day, for 7 consecutive days, and then the growth status and weight changes of the mice in each group were observed.

MERS-CoV pseudovirus = assay: microbe, parasite or virus in culture; format: cell-based; settings: Middle East respiratory syndrome-related coronavirus, Huh-7; 100 nM; read-out: viral inhibitory effect, MERS-CoV pseudovirus
in vitro = settings: human
SARS-CoV pseudovirus = assay: microbe, parasite or virus in culture; format: cell-based; settings: Severe acute respiratory syndrome coronavirus; 100 nM; read-out: viral inhibitory effect, SARS-CoV pseudovirus
VSV-G pseudovirus = format: cell-based
[3] = i.p. (20 mg/Kg per Table 3), Mean of 3 mice
[4] = i.p. (20 mg/Kg per Table 3), individual animal, 20 mg/kg
[5] = i.v. 10 mg/Kg, individual animal, 10 mg/kg
[6] = male, CD-1, mouse, plasma, ip, 20 mg/kg, i.p. (20 mg/Kg per Table 3), individual animal
[7] = p.o. (gavage 20 mg/Kg per Table 3), Mean of 3 mice
[8] = p.o. (gavage 20 mg/Kg per Table 3), individual animal, 20 mg/kg

O=C(NCc1ccccc1)C(=O)[C@H](C[C@@H]1CCCNC1=O)NC(=O)[C@H](CC1CCCCC1)NC(=O)c1cc2ccccc2o1 [Example A13]
Inhibition of HCoV-OC43 infection and CPE (HCoV-OC43 live virus; 1 μM, HCT-8 cells): effectively block the virus infection | IC50 (HCoV-OC43 live virus; Betacoronavirus 1, OC43, HCT-8, read-out: IC50 against HCoV-OC43 live virus infection): 0.086 µM | protective effect on target cells (CPE) at different concentrations (HCoV-OC43 live virus; HCT-8 cells, HCoV-OC43): obviously dose-dependent | inhibition at 0.1 µM (HCoV-229E pseudovirus): ~90% | AUC INF_obs [1, 3]: 7.635 µg·h/mL | AUC last (exposure for intraperitoneal injection) [1, 3]: 7.298 µg·h/mL | C max [1, 3]: 3.27 µg/mL | MRT INF_obs [1, 3]: 5.34 h | T1/2 [1, 3]: 5.77 h | AUC INF_obs [1, 4]: 7.708 µg·h/mL and 8.196 µg·h/mL | AUC last [1, 4]: 7.304 µg·h/mL and 8.077 µg·h/mL | C max [1, 4]: 3.583 µg/mL and 3.372 µg/mL | MRT INF_obs [1, 4]: 6.69 h and 6.05 h and 3.28 h | T1/2 [1, 4]: 5.90 h and 4.94 h | T max [1, 4]: 0.250 h and 0.050 h | AUC INF_obs ([1]; i.v. 10 mg/Kg, Mean of 3 mice): 2.976 µg·h/mL | AUC last ([1]; i.v. 10 mg/Kg, Mean of 3 mice): 2.896 µg·h/mL | Cl_obs ([1]; i.v. 10 mg/Kg, Mean of 3 mice): 3.75 L/h/kg | MRT INF_obs ([1]; i.v. 10 mg/Kg, Mean of 3 mice): 1.88 h | T1/2 ([1]; i.v. 10 mg/Kg, Mean of 3 mice): 3.34 h | VSS_obs ([1]; i.v. 10 mg/Kg, Mean of 3 mice): 6.419 L/kg | AUC INF_obs [1, 5]: 3.411 µg·h/mL and 1.773 µg·h/mL and 3.745 µg·h/mL | AUC last [1, 5]: 3.3 µg·h/mL and 1.734 µg·h/mL and 3.652 µg·h/mL | Cl_obs [1, 5]: 2.93 L/h/kg and 5.64 L/h/kg and 2.67 L/h/kg | MRT INF_obs [1, 5]: 3.11 h and 1.13 h and 1.40 h | T1/2 [1, 5]: 6.09 h and 2.07 h and 1.87 h | VSS_obs [1, 5]: 9.132 L/kg and 6.389 L/kg and 3.736 L/kg | bioavailability ([1]; male, CD-1, mouse, plasma, intraperitoneal, i.p. 20 mg/Kg vs i.v. 10 mg/Kg): 126% | Tmax ([1]; male, CD-1, mouse, plasma, ip, 20 mg/kg, i.p. (20 mg/Kg per Table 3), Mean of 3 mice): 0.183 h | Cmax [1, 6]: 2.86 µg/mL | half-life [1, 6]: 6.46 h | AUC(0-inf) ([1]; male, CD-1, mouse, plasma, ip, 20 mg/kg, i.p. (20 mg/Kg per Table 3), individual animal, read-out: AUC INF_obs): 7 µg·h/mL | AUC(0-t) ([1]; male, CD-1, mouse, plasma, ip, 20 mg/kg, i.p. (20 mg/Kg per Table 3), individual animal, read-out: AUC last): 6.51 µg·h/mL | bioavailability ([1]; male, CD-1, mouse, plasma, oral, p.o. 20 mg/Kg vs i.v. 10 mg/Kg): 7.99% | AUC INF_obs [1, 7]: 0.488 µg·h/mL | AUC last (oral exposure) [1, 7]: 0.463 µg·h/mL | C max [1, 7]: 0.29 µg/mL | MRT INF_obs [1, 7]: 2.11 h | T1/2 [1, 7]: 1.32 h | T max [1, 7]: 0.250 h | T max ([1]; p.o. (gavage 20 mg/Kg per Table 3), individual animal): 0.250 h | AUC INF_obs [1, 8]: 0.7 µg·h/mL and 0.499 µg·h/mL and 0.263 µg·h/mL | AUC last [1, 8]: 0.69 µg·h/mL and 0.458 µg·h/mL and 0.241 µg·h/mL | C max [1, 8]: 0.493 µg/mL and 0.259 µg/mL and 0.118 µg/mL | MRT INF_obs [1, 8]: 1.37 h and 3.08 h and 1.88 h | T1/2 [1, 8]: 0.619 h and 2.15 h and 1.18 h | body weight change versus control group [2]: no difference of the body weight | CC50 relative to the detection dose (Huh-7 cells): more than 1000 times | inhibition at 0.1 µM (MERS-CoV pseudovirus): ~90% | CC50 (in vitro): > 100 µM | inhibition at 0.1 µM (SARS-CoV pseudovirus): ~90% | inhibitory effect on VSV-G-mediated pseudovirus infection (VSV-G pseudovirus): did not show an effective inhibitory effect
